Where two headings read alike, the source gives them in different places. Square brackets hold non-standard residues; d marks the D form. Peptide text beside a SMILES is read from it. * marks the point of attachment. PhAc = O=C(Cc1ccccc1)*
Columns and labels:
[1] = target: T1, VLA-4 (Homo sapiens, UniProt P05556+P13612); format: cell-based; conditions: for RELATIVE POTENCY (inhibition of VLA-4 binding CS-1): relative to standard peptide SEQ ID NO:3 (=1), normalized IC50, about one-tenth or less of SEQ ID NO:3 assigned zero
T1 construct: host or cells: Jurkat (human T lymphoblastic line)
Method: Binding inhibition is measured here as a concentration of peptide that inhibits one-half the binding between a standard number of Jurkat cells and a standard amount of CS-1 peptide bound to the surface of a microtiter plate well. Those concentrations are conveniently expressed as IC50 values, smaller numbers indicating a lower concentration required to inhibit 50 percent binding and therefore greater potency. Further specifics of this assay are provided hereinafter.
Jurkat cells (ATCC TIB 152), a human T lymphoblastic line, labeled with ^51 chromium were used to assay in vitro binding inhibition provided by various peptides discussed herein.
The plates were prepared as follows: The 25-mer CS1 peptide (SEQ ID NO:1) dissolved at 0.5-1 μg/ml in a buffer of 0.1M NaHCO3 at pH 9.5 tha also contained 10 μg/ml of bovine serum albumin (BSA) or a conjugate o the CS1 peptide linked to ovalbumin (CS1-OVA) dissolved at 1-2.5 μg/ml in the same buffer was used as the substrate. Each well of the microtiter plates was coated with 50 μl of substrate or buffer alone for controls The wells were permitted to dry out completely and were then rinsed twice with PBS at pH 7.4. Nonspecific binding sites of each well were then blocked using 200 μl per well of RPMI/1 percent BSA for two hours at room temperature. Both solid phaseaffixed substrates provided similar results.
Jurkat cells (3-5×10^6 cells) were placed into a 15 ml Falcon.TM roundbottom tube with a cap. The tube was centrifuged, and the extra medium was then removed.
Two hundred microliters of a ^51 Cr labeling solution were added to th centrifuged cells and maintained in contact with the cells for 90-120 minutes in a warm room. This procedure typically provides about 50,000-100,000 cpm/well with about 80-100 percent cell viability. Longer contact times provide a greater amount of labeling but lower cell viability.
The labeled cells are washed with (i) complete medium, (ii) 1 mM EDTA/PBS and then (iii) RPMI/1 percent BSA free of serum components. The cells are centrifuged after each washing. The cells are finally resuspended in serumfree RPMI/1 percent BSA at a concentration of 1×10^6 viabl cells/ml, which provides a concentration that is diluted by onehalf in th assay.
Inhibitor peptides are prepared as stock solutions at 20 mg/ml in DMSO in 1.5 ml cryogenic screwcap vials, and were stored at -70° C. Using Flow™ roundbottom or Vbottom microtiter plates, the inhibitor peptides were prepared at twice the assay concentration in RPMI/1 percent BSA at 6 μl/well.
Four initial dilutions were typically used.
The ^51 Crlabeled cells (1×10^6 cells at 60 μl/well) were then admixed with the diluted peptide solutions. The admixtures were maintained at room temperature (about 22° C.) for 30 minutes.
One hundred microliters of each inhibitor peptide/cell admixture were transferred to the substratecoated wells. This was done in triplicate for each dilution. The resulting plates were incubated for 30 minutes at 37° C. and then washed gently three times with RPMI/1 percent BSA at 200 μl/well. Binding was observed microscopically, particularly after the second wash.
The bound cells were then lysed by the addition of a 0.5 percent solution of sodium dodecylsulfate in water at 100 μl/well. The resulting solutions were then processed for counting and calculation of IC50 values following usual procedures. Appropriate positive and negative controls were used with each plate so that the results of separate assays could be normalized and compared.

[2] = test system: BALB/c mice; assay: Adoptive transfer delayed type hypersensitivity in mice (oxazolone); format: in vivo, mouse; conditions: for swelling at challenge site (in words): 6 mg/kg/day s.c. pump for 24 hours
Method: An adoptive transfer delayedtype hypersensitivity murine model has been developed using splenic T cells primed to oxazolone. This model is described in Elices et al., Clin. Exp. Rheum., 11(Suppl. 8):577-580 (1993), whose procedures were followed here.
Thus, BALB/c mice were shaved on the belly and painted (50 μl on the belly and 5 μl on each paw) with three percent oxazolone in acetone/olive oil (4:1) at days zero and 1. At day 5, the mice were sacrificed, their spleens removed, and splenic T cells were obtained via nylon wool columns.
Normal saline or saline containing 25×10^6 /animal of the oxazoloneimmune T cells were separately injected into naive mice. The mic were then challenged by painting 10 μl of 2 percent oxazolone onto one ear each. All procedures were carried out under sterile conditions and in endotoxingfree buffers.
Prior to challenge or saline injection, the mice were implanted with pumps that subcutaneously administered normal saline, normal saline containing the peptide N--phenylacetyl--Leu--Asp--Phe--D--Pro--NH2 or normal saline containing a peptide with a scrambled sequence continually at 6 mg/kg/day for a 24-hour time period. The swelling diameter at the site of challenge or saline injection was measured with a microcaliper 24 hours thereafter.
An expanded study was carried out as described above except that a scrambled peptide control was not used using further inhibitor peptides o Table 1 with larger groups of mice. Statistical analyses were carried out versus injection of vehicle alone. Those results are shown below in Table 2.

T1 sequence (P13612 34-1032): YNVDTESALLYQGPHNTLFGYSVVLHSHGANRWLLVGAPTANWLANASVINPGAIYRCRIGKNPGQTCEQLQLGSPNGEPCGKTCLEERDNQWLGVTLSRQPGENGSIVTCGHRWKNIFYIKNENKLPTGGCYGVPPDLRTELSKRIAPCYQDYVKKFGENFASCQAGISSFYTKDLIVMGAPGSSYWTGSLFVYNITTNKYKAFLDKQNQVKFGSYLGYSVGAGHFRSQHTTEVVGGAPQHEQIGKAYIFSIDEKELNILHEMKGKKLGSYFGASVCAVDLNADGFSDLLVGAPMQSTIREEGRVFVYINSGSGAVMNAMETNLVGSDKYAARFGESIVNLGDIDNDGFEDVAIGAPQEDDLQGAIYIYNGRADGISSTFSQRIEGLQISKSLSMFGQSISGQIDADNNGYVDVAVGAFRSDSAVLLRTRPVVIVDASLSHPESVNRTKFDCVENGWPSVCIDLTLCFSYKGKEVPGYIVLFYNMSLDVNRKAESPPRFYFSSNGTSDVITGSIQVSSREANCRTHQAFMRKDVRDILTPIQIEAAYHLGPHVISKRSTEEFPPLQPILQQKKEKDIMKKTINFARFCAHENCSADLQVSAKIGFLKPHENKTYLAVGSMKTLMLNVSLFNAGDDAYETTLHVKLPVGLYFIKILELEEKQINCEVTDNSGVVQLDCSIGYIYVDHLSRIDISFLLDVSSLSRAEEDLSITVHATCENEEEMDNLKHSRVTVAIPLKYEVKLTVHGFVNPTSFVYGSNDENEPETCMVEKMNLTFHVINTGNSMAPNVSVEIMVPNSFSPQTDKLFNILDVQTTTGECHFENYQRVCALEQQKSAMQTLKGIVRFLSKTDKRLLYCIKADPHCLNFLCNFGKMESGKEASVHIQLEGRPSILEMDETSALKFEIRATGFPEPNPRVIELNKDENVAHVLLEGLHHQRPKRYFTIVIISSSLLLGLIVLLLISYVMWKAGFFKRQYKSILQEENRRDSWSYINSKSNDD
T1 sequence (P05556 21-798): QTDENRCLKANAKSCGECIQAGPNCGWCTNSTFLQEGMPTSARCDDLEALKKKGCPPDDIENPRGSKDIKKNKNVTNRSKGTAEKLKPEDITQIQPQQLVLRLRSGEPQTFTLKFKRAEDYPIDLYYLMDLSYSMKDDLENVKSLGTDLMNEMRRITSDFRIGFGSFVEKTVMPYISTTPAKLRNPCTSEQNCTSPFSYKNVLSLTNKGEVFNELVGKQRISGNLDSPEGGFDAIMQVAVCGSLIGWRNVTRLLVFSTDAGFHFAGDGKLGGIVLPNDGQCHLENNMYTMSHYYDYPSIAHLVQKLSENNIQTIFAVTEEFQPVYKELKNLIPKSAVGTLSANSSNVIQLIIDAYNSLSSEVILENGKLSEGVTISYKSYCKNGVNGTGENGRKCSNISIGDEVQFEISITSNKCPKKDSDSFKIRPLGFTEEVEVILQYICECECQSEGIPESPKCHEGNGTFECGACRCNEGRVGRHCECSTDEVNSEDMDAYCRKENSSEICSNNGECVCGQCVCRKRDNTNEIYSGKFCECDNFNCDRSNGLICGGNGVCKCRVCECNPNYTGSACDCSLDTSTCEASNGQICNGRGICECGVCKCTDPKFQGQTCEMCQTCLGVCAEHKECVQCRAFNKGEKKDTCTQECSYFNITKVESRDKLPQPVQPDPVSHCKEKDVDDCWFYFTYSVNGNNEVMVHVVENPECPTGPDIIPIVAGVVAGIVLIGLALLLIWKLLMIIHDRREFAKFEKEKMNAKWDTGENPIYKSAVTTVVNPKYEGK

| SMILES | binding inhibition (in words) ([1]; compared to standard 10-mer / B12) | RELATIVE POTENCY (inhibition of VLA-4 binding CS-1) [1] | RELATIVE POTENCY (inhibition of VLA-4 binding CS-1) ([1]; listed as N--phenylacetyl--Asp--Leu--Phe--D--Pro--NH2) | swelling at challenge site (in words) [2] | VLA-4 binding inhibition, times better than the standard 10-mer peptide of SEQ ID NO:3 [1] | Percent Inhibition ([2]; expanded study, 6 mg/kg/day, versus vehicle) |
| --- | --- | --- | --- | --- | --- | --- |
| CC(C)C[C@H](NC(=O)[C@H](CC(=O)O)NC(=O)Cc1ccccc1)C(=O)N[C@@H](Cc1ccccc1)C(=O)N1CCC[C@@H]1C(N)=O [X L D F p phenylacetyl amide scrambled, N--phenylacetyl--Asp--Leu--Phe--D--Pro--NH2, reference compound] (PhAc-DLF[dP]-NH2) | no inhibition of VLA-4 | 0 | < 1 | no reduction of inflammation | – | – |
| CC(C)C[C@H](NC(=O)Cc1ccccc1)C(=O)N[C@@H](CC(=O)O)C(=O)N[C@@H](Cc1ccccc1)C(=O)N1CCC[C@@H]1C(N)=O [X L D F p phenylacetyl amide, N--phenylacetyl--Leu--Asp--Phe--D--Pro--NH2] (PhAc-LDF[dP]-NH2) | – | 313 | – | reduced thi type of CS1/VLA-4-mediated immunoinflammation | about 312 times | 36% |
